Target: T1, D2 receptors (Homo sapiens, UniProt P14416)
T1 construct: expressed in transfected cells
Assay: GTPS scintillation proximity assay (GTPS-SPA), CHO_D2 cell membranes
Format: biochemical
Settings: up to the highest concentration tested in the assay (3 μM)
Experimental: Functional potency of compounds of this invention can be measured by the following GTPS scintillation proximity assay (GTPS-SPA). Cells used in the study are Chinese Hamster Ovary (CHO) Cells.
All steps are performed at 4° C. Cell membranes are prepared as follows. Cell pellets are resuspended in 10 volumes of 50 mM HEPES, 1 mM EDTA pH 7.4, using KOH.
Cells are homogenised within a glass waring blender for 2 bursts of 15 secs in 200 mls of buffer (50 mM HEPES, 1 mM leupeptin, 25 μg/ml bacitracin, 1 mM EDTA, 1 mM PMSF, 2 μM Pepstatin A). (the latter 2 reagents added as fresh ×100 and ×500 stocks respectively in ethanol). […]
The final top concentration of test drug is 3 μM in the assay and 11 points serial dilution curves 1:4 in 100% DMSO are carried out using a Biomek FX. […] The final assay cocktail (45.5 μl) is incubated at room temperature to equilibrate for 3-6 hours before reading on a ViewLux™ (613/55 filter) luminescence imager 5 min/plate.
The effect of the test drug over the basal generates fpKi values of test drug are calculated from the IC50 generated by “antagonist format” experiment, using Cheng & Prusoff equation: fKi=IC50/1+([A]/EC50) where: [A] is the concentration of the agonist Quinelorane in the assay and EC50 is the Quinelorane EC50 value obtained in the same experiment. fpKi is defined as −log fKi. […]

T1 sequence (P14416 whole entry): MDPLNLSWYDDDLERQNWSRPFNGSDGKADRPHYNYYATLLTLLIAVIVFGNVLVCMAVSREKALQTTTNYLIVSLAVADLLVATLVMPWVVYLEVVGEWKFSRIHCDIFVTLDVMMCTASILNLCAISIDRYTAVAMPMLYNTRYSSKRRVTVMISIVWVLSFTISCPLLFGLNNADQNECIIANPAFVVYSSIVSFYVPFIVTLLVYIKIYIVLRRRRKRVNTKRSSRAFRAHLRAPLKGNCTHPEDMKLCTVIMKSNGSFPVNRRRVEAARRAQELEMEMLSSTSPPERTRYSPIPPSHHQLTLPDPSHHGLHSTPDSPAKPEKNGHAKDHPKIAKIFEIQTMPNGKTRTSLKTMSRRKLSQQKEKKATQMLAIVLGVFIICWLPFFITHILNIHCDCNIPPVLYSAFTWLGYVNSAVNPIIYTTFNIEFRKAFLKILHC

## Cl.N#Cc1cccn(CCCCN2C[C@@H]3C[C@]3(c3ccc(C(F)(F)F)cc3)C2)c1=O [Example E9, 2-oxo-1-(4-{(1S,5R)-1-[4-(trifluoromethyl)phenyl]-3-azabicyclo[3.1.0]hex-3-yl}butyl)-1,2-dihydro-3-pyridinecarbonitrile hydrochloride]
  activity in the D2 GTPS-SPA assay: no activity

## COc1cccn(CCCCN2C[C@@H]3C[C@]3(c3ccc(C(F)(F)F)cc3)C2)c1=O.Cl [Example E8, 3-(methyloxy)-1-(4-{(1S,5R)-1-[4-(trifluoromethyl)phenyl]-3-azabicyclo[3.1.0]hex-3-yl}butyl)-2(1H)-pyridinone hydrochloride]
  activity in the D2 GTPS-SPA assay: no activity

— patent publication US8163927B2, “Azabicyclo [3.1.0] hexane derivatives as modulators of dopamine D3 receptors” (Glaxo Group Limited, priority 2006, dated 2012)
